Common to all, as to type: in vivo
Assay [1] deals with Ipomoea hederacea (IPOHE). The assay can be described thus: Post-emergence herbicidal glasshouse test. The settings on record: evaluated after 13 days, five point scale. On the procedure: (§1) Seeds of a variety of test species are sown in standard soil in pots (Lolium perenne (LOLPE), Solanum nigrum (SOLNI), Amaranthus retoflexus (AMARE), Setaria faberi (SETFA), Echinochloa crus-galli (ECHCG), Ipomoea hederacea (IPOHE)). After cultivation for one day (pre-emergence) or after 8 days cultivation (post-emergence) under controlled conditions in a glasshouse (at 24/16° C., day/night; 14 hours light; 65% humidity), the plants are sprayed with an aqueous spray solution derived from the formulation of the technical active ingredient in acetone/water (50:50) solution containing 0.5% Tween 20 (polyoxyethelyene sorbitan monolaurate, CAS RN 9005-64-5). Compounds are applied at 500 g/h unless otherwise stated. The test plants are then grown in a glasshouse under controlled conditions in a glasshouse (at 24/16° C., day/night; 14 hours light; 65% humidity) and watered twice daily. After 13 days for pre and post-emergence, the test is evaluated for the percentage damage caused to the plant. The biological activities are shown in the following table on a five point scale (5=80-100%; 4=60-79%; 3=40-59%; 2=20-39%; 1=0-19%).

The test system of assay [2] is Amaranthus retoflexus (AMARE). The assay can be described thus: Post-emergence herbicidal glasshouse test. To be noted: evaluated after 13 days, five point scale. As for the experimental part:
as §1

Assay [3] has as its system Solanum nigrum (SOLNI). Briefly: Post-emergence herbicidal glasshouse test. To be noted: applied at 250 g/ha, evaluated after 13 days, five point scale. On the procedure:
as §1

Assay [4] deals with Echinochloa crus-galli (ECHCG). Briefly: Post-emergence herbicidal glasshouse test. To be noted: evaluated after 13 days, five point scale. On the procedure:
as §1

Assay [5] has as its system Lolium perenne (LOLPE). The assay can be described thus: Post-emergence herbicidal glasshouse test. The settings on record: applied at 250 g/ha, evaluated after 13 days, five point scale. As for the experimental part: as §1
For assay [6], the system named is Setaria faberi (SETFA). Briefly: Post-emergence herbicidal glasshouse test. To be noted: evaluated after 13 days, five point scale. As for the experimental part: as §1
For assay [7], the system named is Ipomoea hederacea (IPOHE). The assay can be described thus: Pre-emergence herbicidal glasshouse test. To be noted: evaluated after 13 days, five point scale. On the procedure:
as §1

The test system of assay [8] is Amaranthus retoflexus (AMARE). The assay can be described thus: Pre-emergence herbicidal glasshouse test. The settings on record: evaluated after 13 days, five point scale. On the procedure: as §1
For assay [9], the system named is Solanum nigrum (SOLNI). Briefly: Pre-emergence herbicidal glasshouse test. The settings on record: applied at 250 g/ha, evaluated after 13 days, five point scale. On the procedure: as §1
In assay [10] the test system is Echinochloa crus-galli (ECHCG). The assay can be described thus: Pre-emergence herbicidal glasshouse test. The settings on record: evaluated after 13 days, five point scale. As for the experimental part: as §1
Assay [11] concerns Lolium perenne (LOLPE). Briefly: Pre-emergence herbicidal glasshouse test. To be noted: applied at 250 g/ha, evaluated after 13 days, five point scale. On the procedure: as §1
Assay [12] relates to Setaria faberi (SETFA). Briefly: Pre-emergence herbicidal glasshouse test. The settings on record: evaluated after 13 days, five point scale. As for the experimental part:
as §1

This is an account of results in patent US10194660B2, “Herbicidal compounds” (Syngenta Participations AG, priority 2015, dated 2019).

As to `Cn1nnnc1NC(=O)c1cc2cnc(C(F)(F)F)nc2c(-c2ccccc2)c1C(F)(F)F` [Compound 1.001], the “percentage damage caused to the plant, POST Application IPOHE” value in [1] (applied at 250 g/ha) is listed as 5 (5=80-100%). Also, the “percentage damage caused to the plant, POST Application AMARE” value in [2] (applied at 250 g/ha) was 5 (5=80-100%). Also, in the assay with Solanum nigrum (SOLNI) [3], the “percentage damage caused to the plant, POST Application SOLNI” value was 5 (5=80-100%). In addition, in assay [4] (applied at 250 g/ha), the “percentage damage caused to the plant, POST Application ECHCG” value was 5 (5=80-100%). The “percentage damage caused to the plant, POST Application LOLPE” value in the assay with Lolium perenne (LOLPE) [5] was 4 (4=60-79%). Besides, in the assay on Setaria faberi (SETFA) [6] (applied at 250 g/ha), the “percentage damage caused to the plant, POST Application SETFA” value is 5 (5=80-100%). Besides, the “percentage damage caused to the plant, PRE Application IPOHE” value in assay [7] (applied at 250 g/ha) is 4 (4=60-79%). For the same compound, the “percentage damage caused to the plant, PRE Application AMARE” value in assay [8] (applied at 250 g/ha) is listed as 5 (5=80-100%). For the same compound, the “percentage damage caused to the plant, PRE Application SOLNI” value with Solanum nigrum (SOLNI) [9] is given as 5 (5=80-100%). The “percentage damage caused to the plant, PRE Application ECHCG” value in assay [10] (applied at 250 g/ha) is given as 5 (5=80-100%). Also, in the assay with Lolium perenne (LOLPE) [11], the “percentage damage caused to the plant, PRE Application LOLPE” value is recorded as 1 (1=0-19%). The “percentage damage caused to the plant, PRE Application SETFA” value with Setaria faberi (SETFA) [12] (applied at 250 g/ha) was 3 (3=40-59%).
Take `Cn1nnnc1NC(=O)c1cc2cnc(C3CC3)nc2c(-c2ccccc2)c1Cl` [Compound 1.028]: the “percentage damage caused to the plant, POST Application IPOHE” value in [1] (applied at 500 g/h) was 5 (5=80-100%). For the same compound, in assay [2] (applied at 500 g/h), the “percentage damage caused to the plant, POST Application AMARE” value was 5 (5=80-100%). The “percentage damage caused to the plant, POST Application ECHCG” value in assay [4] (applied at 500 g/h) is listed as 5 (5=80-100%). The “percentage damage caused to the plant, POST Application SETFA” value with Setaria faberi (SETFA) [6] (applied at 500 g/h) is recorded as 5 (5=80-100%). The “percentage damage caused to the plant, PRE Application IPOHE” value in assay [7] (applied at 500 g/h) is recorded as 3 (3=40-59%). Also, the “percentage damage caused to the plant, PRE Application AMARE” value in assay [8] (applied) is given as 5 (5=80-100%). The “percentage damage caused to the plant, PRE Application ECHCG” value in assay [10] (applied at 500 g/h) is reported as 5 (5=80-100%). In the assay with Setaria faberi (SETFA) [12] (applied at 500 g/h), the “percentage damage caused to the plant, PRE Application SETFA” value is given as 5 (5=80-100%).
Turning to `Cc1c(C(=O)Nc2nnnn2C)cc2cnc(C(F)(F)F)nc2c1-c1ccccc1` [Compound 1.006], the “percentage damage caused to the plant, POST Application IPOHE” value in assay [1] (applied at 500 g/h) was 5 (5=80-100%). For the same compound, the “percentage damage caused to the plant, POST Application AMARE” value in assay [2] (applied at 500 g/h) is 5 (5=80-100%). Moreover, in assay [4] (applied at 500 g/h), the “percentage damage caused to the plant, POST Application ECHCG” value was 5 (5=80-100%). The “percentage damage caused to the plant, POST Application SETFA” value in the assay on Setaria faberi (SETFA) [6] (applied at 500 g/h) was 5 (5=80-100%). In addition, the “percentage damage caused to the plant, PRE Application IPOHE” value in [7] (applied at 500 g/h) is listed as 3 (3=40-59%). Further, the “percentage damage caused to the plant, PRE Application AMARE” value in assay [8] (applied) is given as 5 (5=80-100%). Moreover, the “percentage damage caused to the plant, PRE Application ECHCG” value in assay [10] (applied at 500 g/h) is reported as 2 (2=20-39%). Further, in the assay with Setaria faberi (SETFA) [12] (applied at 500 g/h), the “percentage damage caused to the plant, PRE Application SETFA” value is 5 (5=80-100%).
Turning to `Cn1nnnc1NC(=O)c1cc2cnc(C(F)(F)F)nc2c(-c2ccccc2)c1Cl` [Compound 1.021], the “percentage damage caused to the plant, POST Application IPOHE” value in [1] (applied at 500 g/h) is given as 5 (5=80-100%). In assay [2] (applied at 500 g/h), the “percentage damage caused to the plant, POST Application AMARE” value was 5 (5=80-100%). Also, in assay [4] (applied at 500 g/h), the “percentage damage caused to the plant, POST Application ECHCG” value is 5 (5=80-100%). For the same compound, in the assay on Setaria faberi (SETFA) [6] (applied at 500 g/h), the “percentage damage caused to the plant, POST Application SETFA” value was 5 (5=80-100%). In [7] (applied at 500 g/h), the “percentage damage caused to the plant, PRE Application IPOHE” value was 5 (5=80-100%). The “percentage damage caused to the plant, PRE Application AMARE” value in [8] (applied) is recorded as 5 (5=80-100%). In addition, the “percentage damage caused to the plant, PRE Application ECHCG” value in assay [10] (applied at 500 g/h) is on record as 5 (5=80-100%). The “percentage damage caused to the plant, PRE Application SETFA” value in the assay with Setaria faberi (SETFA) [12] (applied at 500 g/h) is on record as 5 (5=80-100%).
`CC(C)c1ncc2cc(C(=O)Nc3nnnn3C)c(Cl)c(-c3ccccc3)c2n1` [Compound 1.035]: the “percentage damage caused to the plant, POST Application IPOHE” value in [1] (applied at 500 g/h) was 5 (5=80-100%). Moreover, in assay [2] (applied at 500 g/h), the “percentage damage caused to the plant, POST Application AMARE” value is recorded as 5 (5=80-100%). In addition, the “percentage damage caused to the plant, POST Application ECHCG” value in assay [4] (applied at 500 g/h) was 5 (5=80-100%). Besides, the “percentage damage caused to the plant, POST Application SETFA” value with Setaria faberi (SETFA) [6] (applied at 500 g/h) is reported as 5 (5=80-100%). Moreover, the “percentage damage caused to the plant, PRE Application IPOHE” value in [7] (applied at 500 g/h) is on record as 4 (4=60-79%). Besides, the “percentage damage caused to the plant, PRE Application AMARE” value in assay [8] (applied) is 5 (5=80-100%). For the same compound, the “percentage damage caused to the plant, PRE Application ECHCG” value in [10] (applied at 500 g/h) was 5 (5=80-100%). Further, the “percentage damage caused to the plant, PRE Application SETFA” value in the assay with Setaria faberi (SETFA) [12] (applied at 500 g/h) is reported as 5 (5=80-100%).
As for `Cn1nnnc1NC(=O)c1cc2cncnc2c(-c2ccccc2)c1Cl` [Compound 1.042], the “percentage damage caused to the plant, POST Application IPOHE” value in assay [1] (applied at 500 g/h) is 5 (5=80-100%). In addition, the “percentage damage caused to the plant, POST Application AMARE” value in assay [2] (applied at 500 g/h) is reported as 5 (5=80-100%). In addition, the “percentage damage caused to the plant, POST Application ECHCG” value in [4] (applied at 500 g/h) is 5 (5=80-100%). The “percentage damage caused to the plant, POST Application SETFA” value in the assay with Setaria faberi (SETFA) [6] (applied at 500 g/h) was 5 (5=80-100%). In addition, the “percentage damage caused to the plant, PRE Application IPOHE” value in [7] (applied at 500 g/h) is reported as 5 (5=80-100%). For the same compound, the “percentage damage caused to the plant, PRE Application AMARE” value in assay [8] (applied) was 5 (5=80-100%). Further, the “percentage damage caused to the plant, PRE Application ECHCG” value in assay [10] (applied at 500 g/h) was 5 (5=80-100%). In addition, in the assay with Setaria faberi (SETFA) [12] (applied at 500 g/h), the “percentage damage caused to the plant, PRE Application SETFA” value is on record as 5 (5=80-100%).
